Experiments:
Assay type in all cases: in vivo
[1] = test system: intraocular pressure (IOP); assay: IOP lowering after instillation of ophthalmic solution in white rabbit (Comparative Example); conditions: for ΔIOP · AUC0-6 h Mean ± S.E.: 0.05 w/v% solution, 35 μL/eye, in mmHg·h (unit assumed)
Procedure: (§1) In the following examples, the osmolarity was measured by means of OSMOMETER (Model OM-801, VOGEL) at room temperature.
Three kinds of ophthalmic solutions each containing 0.05 w/v% of test substance 2 (13,14-dihydro-15-keto-20-ethyl-PGF2αisopropyl ester), which is a 15-keto-prostaglandin compound having a linear structure at the end of the ω chain, were prepared and used. The osmolarity ratio of the solutions were adjusted to 0.3 (osmolarity: 86 mOsm), 0.7 (osmolarity: 200 mOsm) and 1.0 (osmolarity: 286 mOsm), respectively. Each of the test solutions (35 μL/eye) was instilled serially into one eye of a white rabbit with one-week intervals between the installations.

[2] = test system: intraocular pressure (IOP); assay: IOP lowering after instillation of ophthalmic solution in cynomolgus monkeys (Example 2); conditions: for ΔIOP · AUC0-24 h Mean ± S.E.: 0.001 w/v% solution, 30 μL/eye, in mmHg·h (unit assumed)
Procedure: as §1
Three kinds of ophthalmic solutions each containing 0.001 w/v% of test substance 1 were prepared and used. The osmolarity ratio of the solutions were adjusted to 0.8 (osmolarity: 229 mOsm), 1.0 (osmolarity: 286 mOsm) and 1.3 (osmolarity: 372 mOsm) respectively. Eight cynomolgus monkeys were used for this example. Test solutions were instilled to the monkey in the same manner as Example 1, i.e. 30 μL/eye of each solution was serially instilled to same eye with one-week intervals between the instillations.

[3] = test system: intraocular pressure (IOP); assay: IOP lowering after instillation of ophthalmic solution in cynomolgus monkeys (Example 1); conditions: for ΔIOP · AUC0-24 h Mean ± S.E.: 0.001 w/v% solution, 30 μL/eye
Procedure: as §1
Two kinds of test ophthalmic solutions each containing 0.001 w/v% of test substance 1 (13,14-dihydro-15-keto-17-phenyl-18,19,20-trinor-PGF2αisopropyl ester), which is 15-keto-prostaglandin compound having a ring structure at the end of the ω chain were prepared. The osmolarity ratio of one solution was adjusted to 0.7 (osmolarity: 200 mOsm) and the other was adjusted to 1.0 (osmolarity: 286 mOsm). Nine cynomolgus monkeys were used for the example. One of the test solutions was instilled (30 μL/eye) into one eye of the monkey, and one week after, the other test solution was instilled (30 μL/eye) into the same eye.

[4] = osmolarity ratio 1.0 (286 mOsm)

Row | SMILES | ΔIOP · AUC0-6 h Mean ± S.E. ([1]; osmolarity ratio 0.3 (86 mOsm)) | ΔIOP · AUC0-6 h Mean ± S.E. ([1]; osmolarity ratio 0.7 (200 mOsm)) | ΔIOP · AUC0-6 h Mean ± S.E. [1, 4] | IOP lowering effect, comparison in words ([1]; osmolarity ratio 0.3, 0.7 and 1.0 compared, 0.05 w/v%) | ΔIOP · AUC0-24 h Mean ± S.E. ([2]; osmolarity ratio 0.8 (229 mOsm)) | ΔIOP · AUC0-24 h Mean ± S.E. [2, 4] | ΔIOP · AUC0-24 h Mean ± S.E. ([2]; osmolarity ratio 1.3 (372 mOsm)) | IOP lowering effect, comparison in words ([2]; osmolarity ratio 1.0 compared with osmolarity ratio 0.8 and 1.3, 0.001 w/v%) | ΔIOP · AUC0-24 h Mean ± S.E. ([3]; osmolarity ratio 0.7 (200 mOsm), in mmHg·h (unit assumed)) | ΔIOP · AUC0-24 h Mean ± S.E. ([3]; osmolarity ratio 1.0 (286 mOsm), p < 0.05 vs ratio 0.7, in mmHg·h (unit assumed)) | IOP lowering effect, comparison in words ([3]; osmolarity ratio 1.0 compared with osmolarity ratio 0.7, 0.001 w/v%)
1 | CCCCCCCC(=O)CC[C@@H]1[C@@H](C/C=C\CCCC(=O)OC(C)C)[C@@H](O)C[C@H]1O [Test Substance 2, 13,14-dihydro-15-keto-20-ethyl-PGF2αisopropyl ester] | 18.9 ± 4.4 | 22.5 ± 5.1 | 20.3 ± 4.6 | substantially the same IOP lowering effect | – | – | – | – | – | – | –
2 | CC(C)OC(=O)CCC/C=C\C[C@@H]1[C@@H](CCC(=O)CCc2ccccc2)[C@H](O)C[C@@H]1O [Test Substance 1, 13,14-dihydro-15-keto-17-phenyl-18,19,20-trinor-PGF2αisopropyl ester] | – | – | – | – | 41.1 ± 18.7 | 62.3 ± 19.3 | 37.9 ± 14.8 | greater IOP lowering effect | 22.8 ± 11.8 | 55.1 ± 10.7 | significantly greater IOP lowering effect

From patent US20030220396A1, “Method for treating ocular hypertension and glaucoma” (SUCAMPO AG, priority 2002, published 2003)
